Laboratory results as given in US8481459B2, “Chemical inhibitors of ethylene biosynthesis” (Academia Sinica, priority 2010, dated 2013).

Tested on: gene expression in etiolated eto1-4 seedlings
Experiment: Transcriptional profiling (ATH1 GeneChip microarray) of etiolated eto1-4 seedlings
Type: in vivo, Arabidopsis thaliana
Procedure: For chemical treatments, seeds were sown on 0.5×MS agar medium supplemented with 10 μM chemicals (AVG, compounds 9393, 9370, and 7303) or DMSO (as control). Arabidopsis seeds were stratified in the dark at 4° C. for 4 days, then germinated in the dark for 3 days at 22° C. Approximately 2,000 etiolated seedlings of the wild type or eto1-4 were used to collect tissues for preparation of total RNA in each microarray experiment with Arabidopsis ATH1 GeneChip (Affymetrix). Extraction of RNA followed an established protocol (Chang, et al. (1993) Plant Mol. Biol. Rep. 11, 113-117). Total RNA (10 μg) was used to prepare biotinylated cRNA for hybridization to ATH1 GeneChip in the experiments disclosed herein. Experiments were repeated by 2 independent biological duplicates, and candidate genes present in both experiments were selected for further analysis. The MASS method was used for data analysis and normalization by all sample medium. Candidate genes were selected by the following criteria. First, genes with 1.5-fold differential expression between the wild type and eto1-4 were selected as the master gene pool, which was then used for comparison in treatments with AVG and individual exemplary compounds. Data were presented in hierarchical clustering and Venn diagram format. Agilent GeneSpring GX and Bioconductor software were used to analyze the expression profile data. Gene Ontology descriptions were generated by GeneSpring GX and further referred to the TAR GO database. Raw data are available in the GEO database (http://www.ncbi.nlm.nih.gov/geo) with Accession no. GSE20897.
The filtered and normalized expression data set from 22810 probes on the ATH1 Genechip was used for hierarchical clustering of gene expression profiles for comparison between AVG and the exemplary invention compounds in eto1-4. It was identified that 1,446 genes show at least 1.5-fold difference in expression between the WT and eto1-4 and used them as the master gene pool for clustering analysis (FIG. 7A). […] These genes likely contribute to the etiolated phenotype of eto1-4 by responding to elevated endogenous ethylene. To determine whether the exemplary compounds have specific r overlapping functions with AVG to suppress the eto1-4 phenotype, genes that are regulated by individual exemplary invention compounds and AVG for Venn diagram analysis were clustered (FIG. 7B). More than 63% of genes (356/561 for compound 9393; 389/561 for compound 9370; 399/561 for compound 7303; FIG. 7B) with expression associated with AVG were co-regulated by the exemplary invention compounds, which indicates an overlap function in suppression of the ethylene phenotype in eto1-4. […] Next genes co-regulated by all of the exemplary invention compounds and AVG were examined by performing a clustering analysis using the co-regulated genes identified in FIG. 7B: 356 (compound 9393 vs AVG), 389 (compound 9370 vs AVG) and 399 genes (compound 7303 vs AVG). It was uncovered that 276 genes were co-regulated by all of the exemplary invention compounds and AVG (FIG. 7C and Table 2). On the basis of GO descriptions generated by Gene Spring GX and TAIR database, the 276 genes were divided into subgroups related to their biological functions (Table 2). […] In addition, stress- and pathogenesis-related genes were among the co-regulated genes, possibly because ethylene is involved in both biotic and abiotic stresses.
Genes (1446 non-redundant loci) were selected by 1.5-fold differential expression between eto1-4 and WT as the master pool for analysis. These genes were used for comparison between chemical treatments by AVG and the exemplary invention compounds. The finalized 276 genes that are co-regulated by AVG and all of the exemplary invention compounds are shown. Locus ID also present in Nemhauser et al. (Nemhauser, et al. (2006) Cell 126, 467-475).

[1] = of 1446 genes differentially expressed between WT and eto1-4, 10 μM
[2] = ratio eto1-4 treated to eto1-4 (no treatment)

Cc1ccc(C2CC(=O)c3cnc(NC4CCCC4)nc3C2)cc1 (centres unmarked) [Compound 9370]
number of genes co-regulated with AVG (of 561 genes associated with AVG, 10 μM): 389 genes
number of genes regulated (expression reverted close to WT) [1]: 728 genes
percentage of genes regulated (expression reverted close to WT) [1]: 50.3%
number of genes regulated specifically, not related to AVG treatment (of all genes regulated by the compound (629, 728, 650), 10 μM): 339 genes
Signal Fold Change AT1G03457, unknown biological function [2]: 2.50
Signal Fold Change AT1G03660, unknown biological function [2]: 2.61
Signal Fold Change AT1G05010 ACC oxidase [2]: 0.28
Signal Fold Change AT1G05760 jacalin lectin protein [2]: 3.58
Signal Fold Change AT1G06720 expressed protein [2]: 1.28
Signal Fold Change AT1G07280, unknown biological function [2]: 0.51
Signal Fold Change AT1G07560 leucine-rich repeat protein kinase [2]: 2.24
Signal Fold Change AT1G08650 phosphoenolpyruvate carboxylase kinase [2]: 2.03
Signal Fold Change AT1G08990 glycogenin glucosyltransferase [2]: 2.25
Signal Fold Change AT1G09530 phytochrome interacting factor 3 [2]: 0.28
Signal Fold Change AT1G10760 starch excess protein (SEX1) [2]: 0.33
Signal Fold Change AT1G13430, response to cytokinin stimulus, sulfotransferase protein [2]: 0.28
Signal Fold Change AT1G14540 anionic peroxidase [2]: 0.53
Signal Fold Change AT1G15380 lactoylglutathione lyase [2]: 2.66
Signal Fold Change AT1G17970, unknown biological function [2]: 2.50
Signal Fold Change AT1G18880 proton-dependent oligopeptide transport (POT) protein [2]: 1.93
Signal Fold Change AT1G20190, cell wall organization and biogenesis, expansin (EXP11) [2]: 0.31
Signal Fold Change AT1G22740 Ras-related protein (RAB7) [2]: 2.62
Signal Fold Change AT1G23060, unknown biological function [2]: 0.36
Signal Fold Change AT1G26930, unknown biological function [2]: 0.47
Signal Fold Change AT1G27380 p21-rho-binding domain-containing protein [2]: 1.96
Signal Fold Change AT1G29520, unknown biological function [2]: 1.93
Signal Fold Change AT1G30750, unknown biological function [2]: 2.58
Signal Fold Change AT1G31710 copper amine oxidase [2]: 4.67
Signal Fold Change AT1G32410 vacuolar protein sorting 55 protein [2]: 2.06
Signal Fold Change AT1G32560 late embryogenesis abundant group 1 domain-containing protein [2]: 1.59
Signal Fold Change AT1G33470, unknown biological function [2]: 2.21
Signal Fold Change AT1G33790, unknown biological function [2]: 0.18
Signal Fold Change AT1G34040, unknown biological function [2]: 2.08
Signal Fold Change AT1G35350, unknown biological function [2]: 4.97
Signal Fold Change AT1G35612, unknown biological function [2]: 3.56
Signal Fold Change AT1G42470, unknown biological function [2]: 4.28
Signal Fold Change AT1G44800, unknown biological function [2]: 1.93
Signal Fold Change AT1G44830 AP2-containing transcription factor [2]: 0.34
Signal Fold Change AT1G48480 leucine-rich repeat trans-membrane protein kinase [2]: 2.68
Signal Fold Change AT1G49660 expressed protein [2]: 0.34
Signal Fold Change AT1G50560 cytochrome P450 [2]: 2.32
Signal Fold Change AT1G52830 auxin-responsive protein [2]: 5.14
Signal Fold Change AT1G56010 transcription activator NAC1 [2]: 2.65
Signal Fold Change AT1G56020, unknown biological function [2]: 0.50
Signal Fold Change AT1G58070, unknown biological function [2]: 2.32
Signal Fold Change AT1G59590, unknown biological function [2]: 3.53
Signal Fold Change AT1G59740 proton-dependent oligopeptide transport (POT) protein [2]: 0.39
Signal Fold Change AT1G62290 aspartyl protease protein [2]: 0.27
Signal Fold Change AT1G62510 lipid transfer protein [2]: 2.17
Signal Fold Change AT1G62620, unknown biological function [2]: 2.47
Signal Fold Change AT1G64200 V-ATPase E subunit [2]: 2.41
Signal Fold Change AT1G65510, unknown biological function [2]: 2.74
Signal Fold Change AT1G65920, unknown biological function [2]: 0.31
Signal Fold Change AT1G66230 myb transcription factor (MYB20) [2]: 2.70
Signal Fold Change AT1G67030 zinc finger (C2H2 type) protein [2]: 7.63
Signal Fold Change AT1G68230, unknown biological function [2]: 2.55
Signal Fold Change AT1G68520 zinc finger (B-box type) protein [2]: 2.74
Signal Fold Change AT1G69570 Dof-type zinc finger-containing protein [2]: 3.22
Signal Fold Change AT1G70210 cyclin delta-1 [2]: 3.28
Signal Fold Change AT1G70850 Bet v I allergen protein [2]: 9.49
Signal Fold Change AT1G70890 major latex protein [2]: 5.19
Signal Fold Change AT1G71030 myb transcription factor (MYB2) [2]: 5.41
Signal Fold Change AT1G71740, unknown biological function [2]: 2.84
Signal Fold Change AT1G72230 plastocyanin like protein [2]: 3.09
Signal Fold Change AT1G73220 sugar transporter protein [2]: 3.97
Signal Fold Change AT1G73300 serine carboxypeptidase S10 protein [2]: 2.36
Signal Fold Change AT1G73310 serine carboxypeptidase S10 protein [2]: 2.66
Signal Fold Change AT1G73330 protease inhibitor [2]: 4.31
Signal Fold Change AT1G73590 auxin efflux carrier protein [2]: 2.08
Signal Fold Change AT1G73640, small GTPase mediated signal transduction, Ras-related GTP-binding protein [2]: 2.10
Signal Fold Change AT1G73830 bHLH protein [2]: 0.37
Signal Fold Change AT1G75500, unknown biological function [2]: 3.37
Signal Fold Change AT1G76220, unknown biological function [2]: 3.55
Signal Fold Change AT1G76500, photomorphogenesis, DNA-binding protein [2]: 0.42
Signal Fold Change AT1G76540 cell division control protein [2]: 2.53
Signal Fold Change AT1G76790, unknown biological function [2]: 3.90
Signal Fold Change AT1G78240 dehydration-responsive protein [2]: 0.47
Signal Fold Change AT1G80380 phosphoribulokinase [2]: 2.14
Signal Fold Change AT2G01910, microtubule nucleation, microtubule associated protein (MAP65/ASE1) protein [2]: 2.62
Signal Fold Change AT2G02820 myb transcription factor (MYB88) [2]: 4.00
Signal Fold Change AT2G02850 plantacyanin [2]: 0.23
Signal Fold Change AT2G16580 auxin-responsive protein [2]: 2.83
Signal Fold Change AT2G16990, unknown biological function [2]: 2.79
Signal Fold Change AT2G19590 ACC oxidase [2]: 0.28
Signal Fold Change AT2G19970, unknown biological function [2]: 3.06
Signal Fold Change AT2G20080, unknown biological function [2]: 3.75
Signal Fold Change AT2G20670, unknown biological function [2]: 2.45
Signal Fold Change AT2G21820, unknown biological function [2]: 0.85
Signal Fold Change AT2G21880 Ras-related GTP-binding protein [2]: 3.99
Signal Fold Change AT2G22860 phytosulfokines 2 (PSK2) [2]: 2.67
Signal Fold Change AT2G24150 expressed protein (response to hormone stimulus) [2]: 2.23
Signal Fold Change AT2G25900 zinc finger (CCCH-type) protein [2]: 1.48
Signal Fold Change AT2G26070 expressed protein (response to ethylene stimulus) [2]: 0.28
Signal Fold Change AT2G26440 pectinesterase protein [2]: 0.38
Signal Fold Change AT2G26740 epoxide hydrolase [2]: 0.23
Signal Fold Change AT2G27140 heat shock protein [2]: 2.43
Signal Fold Change AT2G27370, unknown biological function [2]: 2.26
Signal Fold Change AT2G28305, unknown biological function [2]: 3.16
Signal Fold Change AT2G28410, unknown biological function [2]: 2.92
Signal Fold Change AT2G29340 short-chain dehydrogenase [2]: 0.30
Signal Fold Change AT2G29440, toxin catabolic process, glutathione S-transferase [2]: 0.20
Signal Fold Change AT2G30360 CBL-interacting protein kinase 11 (CIPK11) [2]: 2.02
Signal Fold Change AT2G33380 calcium-binding RD20 protein [2]: 0.21
Signal Fold Change AT2G33990, unknown biological function [2]: 2.72
Signal Fold Change AT2G34300, unknown biological function [2]: 0.33
Signal Fold Change AT2G34500 cytochrome P450 [2]: 4.05
Signal Fold Change AT2G34510, unknown biological function [2]: 2.70
Signal Fold Change AT2G34700, unknown biological function [2]: 1.03
Signal Fold Change AT2G35300 late embryogenesis abundant group 1 domain-containing protein [2]: 1.92
Signal Fold Change AT2G35710 glycogenin glucosyltransferase [2]: 2.23
Signal Fold Change AT2G36350 protein kinase [2]: 0.55
Signal Fold Change AT2G36410, unknown biological function [2]: 2.60
Signal Fold Change AT2G37130 peroxidase 21 [2]: 2.23
Signal Fold Change AT2G38760, unknown biological function [2]: 4.10
Signal Fold Change AT2G38790, unknown biological function [2]: 1.99
Signal Fold Change AT2G39010 aquaporin [2]: 2.05
Signal Fold Change AT2G39310, unknown biological function [2]: 2.73
Signal Fold Change AT2G39980, unknown biological function [2]: 0.14
Signal Fold Change AT2G40420 amino acid transporter [2]: 2.03
Signal Fold Change AT2G41090, unknown biological function [2]: 0.19
Signal Fold Change AT2G41230, unknown biological function [2]: 0.07
Signal Fold Change AT2G42320, unknown biological function [2]: 0.53
Signal Fold Change AT2G43050 pectinesterase protein [2]: 2.35
Signal Fold Change AT2G43535 trypsin inhibitor [2]: 6.13
Signal Fold Change AT2G44110 seven transmembrane MLO protein [2]: 0.39
Signal Fold Change AT2G44130 kelch repeat containing F-box protein [2]: 3.39
Signal Fold Change AT2G47510 fumarate hydratase [2]: 0.43
Signal Fold Change AT2G47550 pectinesterase protein [2]: 0.39
Signal Fold Change AT2G48030, unknown biological function [2]: 2.61
Signal Fold Change AT3G04010 glycosyl hydrolase [2]: 1.98
Signal Fold Change AT3G05990, signal transduction, phosphodiesterase leucine-rich repeat protein [2]: 2.15
Signal Fold Change AT3G09020, unknown biological function [2]: 3.28
Signal Fold Change AT3G09780 protein kinase [2]: 0.50
Signal Fold Change AT3G10080, unknown biological function [2]: 2.52
Signal Fold Change AT3G10340 phenylalanine ammonia-lyase [2]: 1.94
Signal Fold Change AT3G11550, unknown biological function [2]: 2.39
Signal Fold Change AT3G12030, DNA repair, expressed protein [2]: 2.17
Signal Fold Change AT3G12500 basic endocexemplary inase [2]: 1.91
Signal Fold Change AT3G13980, unknown biological function [2]: 6.74
Signal Fold Change AT3G14370 protein kinase [2]: 0.30
